Measured values taken from the NIST ThermoML archive (doi:10.1016/j.jct.2014.07.013).
± gives the expanded uncertainty stated by the source.

Details: Liquid, Closed cell (Static) method

Structure (SMILES)	vapor or sublimation pressure (258.15 K) [kPa]	vapor or sublimation pressure (263.15 K) [kPa]	vapor or sublimation pressure (273.15 K) [kPa]	vapor or sublimation pressure (283.15 K) [kPa]
FC(F)(F)I [trifluoroiodomethane]	133 ± 1	160.4 ± 1	228.4 ± 1.1	316.5 ± 1.1
CCC [propane]	291.6 ± 1.1	345.3 ± 1.1	474.5 ± 1.2	636.8 ± 1.4
